# According to US20210038681A1, “PHARMACEUTICAL COMPOSITION FOR TREATING VIRAL HEPATITIS C” (priority 2018, published 2021):
# Columns and labels:
# [1] = tested on: HCV 1a Wild-type replicon; assay: microbe, parasite or virus in culture; conditions: Hepatitis C virus, Huh-7, read-out: Mean EC50 (nM) ± SD
# [2] = tested on: Wild-type HCV 1b replicon; type: cell-based; conditions: Hepatitis C virus, read-out: Mean EC50 (nM)
structure (smiles),measurement,setting,value
"CC(C)(C)OC(=O)N[C@H]1CCCCC/C=C\[C@@H]2C[C@@]2(C(=O)NS(=O)(=O)C2CC2)NC(=O)[C@@H]2C[C@@H](OC(=O)N3Cc4cccc(F)c4C3)CN2C1=O [ASC08, Danoprevir]",EC50,[1],5.4 nM
same,EC50,[2],0.7 nM
